Results on ten compounds are retold here after patent US20230105725A1, “HIGHLY SAFE NON-LAMELLAR LIQUID CRYSTAL FORMING COMPOSITION” (FARNEX INCORPORATED, priority 2020, published 2023).

One data set is described as follows: Gel formation test of precursor formulations in excess aqueous medium. As to conditions: self-organizing lipid (SOL) criterion. It counts as physicochemical. The protocol: The precursor formulations of Nos. 1 to 75 thus prepared were subjected to a gel formation test. An aliquot (about 100 to 300 mg) of each precursor formulation was added to an excess aqueous medium (about 0.5 to 2 mL of injectable water for Nos. 1 to 61 and 64 to 75 or phosphate buffered saline (PBS) of pH 7.4 for Nos. 62 and 63) in a vial, and mixed at room temperature (25° C.) with a spatula or a vortex mixer. As a result, all the precursor formulations of Nos. 1 to 75 produced gel compositions having colorless transparent to white turbid appearance separated in the excess aqueous medium. […]
As for `CC(=CCCC(=O)OCC(C)O)CCCC(C)CCCC(C)C` (stereo not shown) [C17 propylene glycol ester, mono-O-(5,9,13-trimethyltetradec-4-enoyl)propylene glycol], the “gel formation of the lipid used alone by mixing with water” value (“gel formation of the lipid used alone” for short) is reported as “do not form a gel”.

As for `C/C(=C\C(=O)OCC(C)O)CCCC(C)CCCC(C)CCCC(C)C` (stereo not shown) [C20 propylene glycol ester, mono-O-(3,7,11,15-tetramethylhexadec-2-enoyl)propylene glycol], the “gel formation of the lipid used alone” value is “do not form a gel”.

As for `CC(=CCC(=O)OCC(C)O)CCCC(C)CCCC(C)CCCC(C)C` (stereo not shown) [C21 propylene glycol ester, mono-O-(4,8,12,16-tetramethylheptadec-3-enoyl)propylene glycol], the “gel formation of the lipid used alone” value is listed as “do not form a gel”.

As to `CC(=CCCC(=O)OCCC(C)O)CCCC(C)CCCC(C)CCCC(C)C` (stereo not shown) [C22 butylene glycol ester, mono-O-(5,9,13,17-tetramethyloctadec-4-enoyl)1,3-butylene glycol], the “gel formation of the lipid used alone” value is recorded as “do not form a gel”.

Take `CC(=CCCC(=O)OCCO)CCCC(C)CCCC(C)CCCC(C)C` (stereo not shown) [C22 ethylene glycol ester, mono-O-(5,9,13,17-tetramethyloctadec-4-enoyl)ethylene glycol]: the “gel formation of the lipid used alone” value is “do not form a gel”.

As to `CC(=CCCC(=O)OCCC(C)(C)O)CCCC(C)CCCC(C)CCCC(C)C` (stereo not shown) [C22 isoprene glycol ester, mono-O-(5,9,13,17-tetramethyloctadec-4-enoyl)3-methyl-1,3-butanediol], the “gel formation of the lipid used alone” value is recorded as “do not form a gel”.

Consider `CC(C)CCCC(C)CCCC(C)CCCC(C)CC(=O)OCC(C)O` (stereo not shown) [saturated C20 propylene glycol ester, mono-O-(3,7,11,15-tetramethylhexadecanoyl)propylene glycol], for which the “gel formation of the lipid used alone” value is recorded as “do not form a gel”.

For `CC(C)CCCC(C)CCCC(C)CCCC(C)CCCC(=O)OCC(C)O` (stereo not shown) [saturated C22 propylene glycol ester, mono-O-(5,9,13,17-tetramethyloctadecanoyl)propylene glycol], the “gel formation of the lipid used alone” value was “do not form a gel”.

A further data set is described as follows: Viscosity of the amphipathic compound. In kind it is physicochemical.
Conditions: not given
The protocol: Specifically, the amphipathic compound represented by the general formula (I) has a viscosity of preferably 15.0 Pa·s or less, more preferably 11.0 Pa·s or less, further preferably 6.0 Pa·s or less, by itself, as measured at 25° C. This viscosity can be measured using, for example, a viscosity and viscoelasticity measuring apparatus (Gemini II, Malvern Instruments Ltd.) at a temperature of 25° C.
On to `CC(=CCCC(=O)OCC(CO)(CO)CO)CCCC(C)CCCC(C)CCCC(C)C` (stereo not shown) [C22 pentaerythritol ester, mono-O-(5,9,13,17-tetramethyloctadec-4-enoyl)pentaerythritol], for which the Viscosity is on record as 1.7 Pa·s.

Staying with this data set, now noted: at shear velocity of 92 1/s.
Compound `CC(C)=CCC/C(C)=C/CC/C(C)=C/CCC(C)=CCCC(=O)OCC(O)CO` (stereo not shown) [glyceryl geranylgeranylacetate, mono-O-(5,9,13,17-tetramethyloctadeca-4,8,12,16-tetraenoyl)glycerol] showed a Viscosity of 0.37 Pa·s.
